Laboratory results as given in patent publication US12370235B2, “Synthetic, non-natural antimicrobial peptides inspired by Staphylococcus auricularis delta toxin” (University of Saskatchewan, priority 2021, dated 2025).
Ends that are not written are not given here.

What was measured:
[1] = test system: S. aureus ATCC BAA-1683 (MRSA SCCmec type IV); assay: MIC, broth dilution; type: cell-based, Staphylococcus aureus; conditions: Table 5; STIP3 variants, highest concentration 100 μg/mL
In short: (§1)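 MIC defined as the lowest peptide level giving no growth after overnight standing incubation at 37° C. Bacteria at OD 6×10^−4 in cation-adjusted MH broth met 2-fold serial peptide dilutions; peptide purity 95%.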

[2] = test system: S. aureus ATCC BAA-2094 (MRSA SCCmec type V); assay: MIC, broth dilution; type: cell-based, Staphylococcus aureus; conditions: Table 5; STIP3 variants, highest concentration 100 μg/mL
In short: as §1

[3] = test system: S. aureus ATCC BAA-42 (MRSA SCCmec type VI); assay: MIC, broth dilution; type: cell-based, Staphylococcus aureus; conditions: Table 5; STIP3 variants, highest concentration 100 μg/mL
In short: as §1

[4] = test system: S. aureus ATCC 33592 (MRSA SCCmec type III); assay: MIC, broth dilution; type: cell-based, Staphylococcus aureus; conditions: Table 5; STIP3 variants, highest concentration 100 μg/mL
In short: as §1

[5] = test system: S. aureus ATCC BAA-41 (MRSA SCCmec type II); assay: MIC, broth dilution; type: cell-based, Staphylococcus aureus; conditions: Table 5; STIP3 variants, highest concentration 100 μg/mL
In short: as §1

[6] = test system: S. aureus ATCC BAA-44 (MRSA SCCmec type I); assay: MIC, broth dilution; type: cell-based, Staphylococcus aureus; conditions: Table 5; STIP3 variants, highest concentration 100 μg/mL
In short: as §1

[7] = test system: S. aureus ATCC 29213; assay: MIC, broth dilution; type: cell-based, Staphylococcus aureus; conditions: Table 5; STIP3 variants, highest concentration 100 μg/mL
In short: as §1

[8] = test system: S. aureus ATCC BAA-2313 (MRSA SCCmec type XI); assay: MIC, broth dilution; type: cell-based, Staphylococcus aureus; conditions: Table 5; STIP3 variants, highest concentration 100 μg/mL
In short: as §1

[9] = test system: S. aureus / MRSA (ATCC MP-2 panel); type: cell-based, Staphylococcus aureus; conditions: MIC screen, in words
Experimental: In order to begin to characterize STIP3-1 and potential sites amenable to modification, an alanine scanning experiment was performed. A total of 16 peptides with single alanine substitutions were assessed to inform on the importance of individual residues to antimicrobial activity. […] Next a series of thirty STIP3-1 variants were designed, guided by the aforementioned alanine scan and a previous report that the central α-helical core of the S. aureus δ-toxin could be converted into AMP through the inclusion of additional lysine residues^39. The collection included ten members with single substitutions relative to STIP3-1 and others that incorporated a number of changes that were designed to increase overall and local cationic charge as well as hydrophobic character (Table 5). Each of the STIPs was screened, including STIP3-1 to STIP-31, for antibiotic activity against a methicillin-sensitive S. aureus test organism and a panel of 7 MRSA strains defined by distinct SCCmec genotypes (FIG. 2; ATCC MP-2).
Determination of minimum inhibitory concentrations. The MICs were measured for bioactive peptides identified from the initial screen. For bacterial studies, cation-adjusted Mueller Hinton (MH) broth was used as the growth medium whereas YPD was used for C. albicans. Bacterial cultures were diluted to a OD value of 6×10^−4 in MH broth and a 180 μl volume was mixed with 20 μl of peptide arrayed as 2-fold dilution series in a 96-well plate. For the positive control, 20 μl of sterile water was used. Plates were incubated as standing cultures overnight at 37° C. The lowest peptide concentration that resulted no observed microbial growth after an overnight treatment was defined as the MIC.

[10] = test system: Mannheimia haemolytica ATCC 33393; assay: MIC, broth dilution; type: cell-based; conditions: Table 11; highest concentration 25 μg/mL
In short: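 Read-out is the lowest peptide concentration showing no growth after an overnight standing culture at 37 °C. Two-fold serial dilutions of 95%-pure peptide were tested against M. haemolytica ATCC 33393 at OD 6×10^−4 in cation-adjusted MH broth.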

[11] = test system: Candida lusitaniae AR 398; assay: MIC, YPD broth, CDC and FDA AR Candida isolate panel; type: cell-based; conditions: Table 9 below the line: only 200 or 100 μg/mL tested; values reported as 100 are ≤100 μg/mL
In short: (§2)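 Peptide purity was 95%. Doubling dilutions were tested against yeast set at an optical density of […], with overnight standing incubation at 37° C and a sterile-water control.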

[12] = test system: Candida krusei AR 397; assay: as above; type: cell-based; conditions: Table 9 below the line: only 200 or 100 μg/mL tested; values reported as 100 are ≤100 μg/mL
In short: as §2

[13] = test system: Kodamae ohmeri AR 396; assay: as above; type: cell-based; conditions: Table 9 below the line: only 200 or 100 μg/mL tested; values reported as 100 are ≤100 μg/mL
In short: as §2

[14] = test system: Candida haemulonii AR 395; assay: as above; type: cell-based; conditions: Table 9 below the line: only 200 or 100 μg/mL tested; values reported as 100 are ≤100 μg/mL
In short: as §2

[15] = test system: Candida duobushaemulonii AR 391; assay: as above; type: cell-based; conditions: Table 9 below the line: only 200 or 100 μg/mL tested; values reported as 100 are ≤100 μg/mL
In short: as §2

[16] = test system: Saccharomyces cerevisiae AR 400; assay: as above; type: cell-based; conditions: Table 9 below the line: only 200 or 100 μg/mL tested; values reported as 100 are ≤100 μg/mL
In short: as §2

[17] = test system: Candida duobushaemulonii AR 392; assay: as above; type: cell-based; conditions: Table 9 below the line: only 200 or 100 μg/mL tested; values reported as 100 are ≤100 μg/mL
In short: as §2

[18] = test system: Candida haemulonii AR 393; assay: as above; type: cell-based; conditions: Table 9 below the line: only 200 or 100 μg/mL tested; values reported as 100 are ≤100 μg/mL
In short: as §2

[19] = test system: Candida duobushaemulonii AR 394; assay: as above; type: cell-based; conditions: Table 9 below the line: only 200 or 100 μg/mL tested; values reported as 100 are ≤100 μg/mL
In short: as §2

[20] = test system: Saccharomyces cerevisiae AR 399; assay: as above; type: cell-based; conditions: Table 9 below the line: only 200 or 100 μg/mL tested; values reported as 100 are ≤100 μg/mL
In short: as §2

[21] = test system: C. albicans MYA-2876; assay: MIC, YPD broth; type: cell-based, Candida albicans; conditions: Table 8
In short: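 Yeast cells were diluted in YPD broth, and 180 μl aliquots were mixed with 20 μl of peptide from 2-fold serial dilutions in flat-bottom 96-well microtitre plates. Wells receiving 20 μl sterile water served as controls. After standing incubation overnight at 37° C, the MIC was taken as the lowest peptide concentration with no visible microbial growth.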

[22] = test system: C. albicans Y537; assay: MIC, YPD broth; type: cell-based, Candida albicans; conditions: Table 8

Sequence | MIC S. aureus ATCC BAA 1683 (IV) [1] | MIC S. aureus ATCC BAA 2094 (V) [2] | MIC S. aureus ATCC BAA 42 (VI) [3] | MIC S. aureus ATCC 33592 (III) [4] | MIC S. aureus ATCC BAA 41 (II) [5] | MIC S. aureus ATCC BAA 44 (I) [6] | MIC S. aureus ATCC 29213 [7] | MIC S. aureus ATCC BAA 2313 (XI) [8] | inhibition of S. aureus [9] | MIC (μg/mL) M. haemolytica [10] | MIC (μg/mL) Candida lusitaniae AR 398 [11] [µg/mL] | MIC (μg/mL) Candida krusei AR 397 [12] | MIC (μg/mL) Kodamae ohmeri AR 396 [13] | MIC (μg/mL) Candida haemulonii AR 395 [14] | MIC (μg/mL) Candida duobushaemulonii AR 391 [15] | MIC (μg/mL) Saccharomyces cerevisiae AR 400 [16] [µg/mL] | MIC (μg/mL) Candida duobushaemulonii AR 392 [17] | MIC (μg/mL) Candida haemulonii AR 393 [18] | MIC (μg/mL) Candida duobushaemulonii AR 394 [19] | MIC (μg/mL) Saccharomyces cerevisiae AR 399 [20] [µg/mL] | other results
TVGVLVKWILNVVAKFA [STIP3-24, TVGVLVKWILNVVAKFA] | > (no inhibition was observed at the highest concentration of peptide tested: 100 μg/mL for the STIP3 variants) | > (no inhibition was observed at the highest concentration of peptide tested: 100 μg/mL for the STIP3 variants) | > (no inhibition was observed at the highest concentration of peptide tested: 100 μg/mL for the STIP3 variants) | > (no inhibition was observed at the highest concentration of peptide tested: 100 μg/mL for the STIP3 variants) | > (no inhibition was observed at the highest concentration of peptide tested: 100 μg/mL for the STIP3 variants) | > (no inhibition was observed at the highest concentration of peptide tested: 100 μg/mL for the STIP3 variants) | > (no inhibition was observed at the highest concentration of peptide tested: 100 μg/mL for the STIP3 variants) | > (no inhibition was observed at the highest concentration of peptide tested: 100 μg/mL for the STIP3 variants) | incapable of inhibiting S. aureus | > (> symbol indicates that no inhibition was observed at the highest concentration of peptide tested: 25 μg/mL) | ≤ 100 | > (values below the line were determined using two concentrations of peptide 200 or 100 μg/mL) | > (values below the line were determined using two concentrations of peptide 200 or 100 μg/mL) | > (values below the line were determined using two concentrations of peptide 200 or 100 μg/mL) | > (values below the line were determined using two concentrations of peptide 200 or 100 μg/mL) | ≤ 100 | > (values below the line were determined using two concentrations of peptide 200 or 100 μg/mL) | > (values below the line were determined using two concentrations of peptide 200 or 100 μg/mL) | > (values below the line were determined using two concentrations of peptide 200 or 100 μg/mL) | ≤ 100 | MIC C. albicans MYA-2876 [21]: > (> symbol indicates that no inhibition was observed at the highest concentration of peptide tested: 100 μg/mL)
TVKFLVKWILKWVAKFA [STIP3-25, TVKFLVKWILKWVAKFA] | > (no inhibition was observed at the highest concentration of peptide tested: 100 μg/mL for the STIP3 variants) | > (no inhibition was observed at the highest concentration of peptide tested: 100 μg/mL for the STIP3 variants) | > (no inhibition was observed at the highest concentration of peptide tested: 100 μg/mL for the STIP3 variants) | > (no inhibition was observed at the highest concentration of peptide tested: 100 μg/mL for the STIP3 variants) | > (no inhibition was observed at the highest concentration of peptide tested: 100 μg/mL for the STIP3 variants) | > (no inhibition was observed at the highest concentration of peptide tested: 100 μg/mL for the STIP3 variants) | > (no inhibition was observed at the highest concentration of peptide tested: 100 μg/mL for the STIP3 variants) | > (no inhibition was observed at the highest concentration of peptide tested: 100 μg/mL for the STIP3 variants) | incapable of inhibiting S. aureus | > (> symbol indicates that no inhibition was observed at the highest concentration of peptide tested: 25 μg/mL) | ≤ 100 | > (values below the line were determined using two concentrations of peptide 200 or 100 μg/mL) | > (values below the line were determined using two concentrations of peptide 200 or 100 μg/mL) | > (values below the line were determined using two concentrations of peptide 200 or 100 μg/mL) | > (values below the line were determined using two concentrations of peptide 200 or 100 μg/mL) | ≤ 100 | > (values below the line were determined using two concentrations of peptide 200 or 100 μg/mL) | > (values below the line were determined using two concentrations of peptide 200 or 100 μg/mL) | > (values below the line were determined using two concentrations of peptide 200 or 100 μg/mL) | ≤ 100 | MIC C. albicans Y537 [22]: 25 µg/mL; MIC C. albicans MYA-2876 [21]: 25 µg/mL
